Here are results for 33 molecules from patent US20100227859A1, “TRICYCLIC COMPOUNDS AS MATRIX METALLOPROTEINASE INHIBITORS” (priority 2007, published 2010).

Some results are limits rather than exact numbers.

The IC50 is the concentration at which inhibition is half-maximal. A low value points to greater potency.

purified human MMP-12 enzyme, sequence (P39900 106-470): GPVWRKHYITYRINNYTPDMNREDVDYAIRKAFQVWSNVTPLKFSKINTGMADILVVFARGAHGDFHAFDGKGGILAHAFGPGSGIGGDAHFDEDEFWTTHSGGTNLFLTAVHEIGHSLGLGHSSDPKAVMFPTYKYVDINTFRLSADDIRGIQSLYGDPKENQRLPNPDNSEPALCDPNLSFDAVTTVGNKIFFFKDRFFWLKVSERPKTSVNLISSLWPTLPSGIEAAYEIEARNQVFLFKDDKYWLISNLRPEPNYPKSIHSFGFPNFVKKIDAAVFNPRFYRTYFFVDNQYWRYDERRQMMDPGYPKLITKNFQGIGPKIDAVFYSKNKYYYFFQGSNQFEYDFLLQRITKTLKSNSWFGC

The experiment concerns the target purified human MMP-12 enzyme (Homo sapiens, UniProt P39900). Kind of experiment: MMP-12 FRET assay. The experiment is classed as biochemical. The settings on record: substrate 20 μM, room temperature. The essentials: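 Initial fluorescence rate (325/395 nm) of cleavage of MCA-Pro-Leu-Gly-Leu-Dpa(DNP)-Ala-Arg, 20 μM final, was followed for 30 min at room temperature after a 30 min enzyme–compound preincubation. Buffer: 50 mM HEPES pH 7.4, 100 mM NaCl, 5 mM CaCl2, 0.005% Brij-35, with 10% final DMSO. IC50 came from a Hill-type fit of rate versus inhibitor concentration.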
For `CC(C)[C@H](NS(=O)(=O)c1ccc2c(c1)oc1ccc(-c3cccnc3)cc12)C(=O)O` [Compound 3, (S)-3-methyl-2-(8-(pyridin-3-yl)dibenzo[b,d]furan-3-sulfonamido)butanoic acid], the IC50 is < 1.5 nM.

For `CC(C)C[C@H](NS(=O)(=O)c1ccc2c(c1)oc1ccc(-c3noc(C(C)(C)C)n3)cc12)C(=O)O` [Compound 252, (S)-2-(8-(5-tert-butyl-1,2,4-oxadiazol-3-yl)dibenzo[b,d]furan-3-sulfonamido)-4-methylpentanoic acid], the IC50 amounted to 12 nM.

Take `CCC(C)Cn1cc(-c2ccc3c(c2)oc2ccc(S(=O)(=O)N[C@@H](C(=O)O)C(C)C)cc23)cn1` (stereo partly drawn) [Compound 170, (2R)-3-methyl-2-(7-(1-(2-methylbutyl)-1H-pyrazol-4-yl)dibenzo[b,d]furan-2-sulfonamido)butanoic acid]: the IC50 amounted to 5.2 nM.

Regarding `CC(C)[C@@H](NS(=O)(=O)c1ccc2oc3cc(-c4noc(-c5ccccc5)n4)ccc3c2c1)C(=O)O` [Compound 150, (R)-3-methyl-2-(7-(5-phenyl-1,2,4-oxadiazol-3-yl)dibenzo[b,d]furan-2-sulfonamido)butanoic acid], the midpoint of inhibition, the IC50, lay at 5 nM.

In the case of `CC(C)[C@H](NS(=O)(=O)c1ccc2c(c1)oc1ccc(-c3ccc4ncccc4c3)cc12)C(=O)O` [Compound 14, (S)-3-methyl-2-(8-(quinolin-6-yl)dibenzo[b,d]furan-3-sulfonamido)butanoic acid], the IC50 was < 1.5 nM.

For the molecule `CC(C)[C@@H](NS(=O)(=O)c1ccc2oc3cc(-c4nc5ccc(F)cc5s4)ccc3c2c1)C(=O)O` [Compound 297, (R)-2-(7-(6-fluorobenzo[d]thiazol-2-yl)dibenzo[b,d]furan-2-sulfonamido)-3-methylbutanoic acid], 2.2 nM corresponded to half-maximal inhibition (IC50).

`CC(C)[C@H](NS(=O)(=O)c1ccc2c(c1)oc1ccc(-c3ccc4oc5ccccc5c4c3)cc12)C(=O)O` [Compound 195, (S)-2-(2,2′-bidibenzo[b,d]furan-7-sulfonamido)-3-methylbutanoic acid] showed an IC50 of 7.3 nM.

For the molecule `Cc1nc(-c2ccc(C(F)(F)F)cc2)sc1-c1ccc2oc3cc(S(=O)(=O)N[C@H](C(=O)O)C(C)C)ccc3c2c1` [Compound 164, (S)-3-methyl-2-(8-(4-methyl-2-(4-(trifluoromethyl)phenyl)thiazol-5-yl)dibenzo[b,d]furan-3-sulfonamido)butanoic acid], the IC50 was 12.3 nM.

Regarding `CC(C)[C@H](NS(=O)(=O)c1ccc2c(c1)oc1cc(-c3cnc(Cl)s3)ccc12)C(=O)O` [Compound 181, (S)-2-(7-(2-chlorothiazol-5-yl)dibenzo[b,d]furan-3-sulfonamido)-3-methylbutanoic acid], the IC50 is < 1.5 nM.

Regarding `CC(C)[C@H](NS(=O)(=O)c1ccc2c(c1)sc1ccc(-c3ccoc3)cc12)C(=O)O` [Compound 25, (S)-2-(8-(furan-3-yl)dibenzo[b,d]thiophene-3-sulfonamido)-3-methylbutanoic acid], the IC50 worked out at 4.8 nM.

`Cc1noc(C)c1-c1ccc2c(c1)oc1ccc(S(=O)(=O)N[C@@H](C(=O)O)C(C)C)cc12` [Compound 145, (R)-2-(7-(3,5-dimethylisoxazol-4-yl)dibenzo[b,d]furan-2-sulfonamido)-3-methylbutanoic acid] had an IC50 of 29 nM.

In turn, `CC(C)[C@@H](NS(=O)(=O)c1ccc2oc3cc(-c4ccoc4)ccc3c2c1)C(=O)O` [Compound 96, (R)-2-(7-(furan-3-yl)dibenzo[b,d]furan-2-sulfonamido)-3-methylbutanoic acid] displayed an IC50 of 13 nM.

As to `Cc1nc(-c2cnc(-c3ccc4c(c3)oc3cc(S(=O)(=O)N[C@H](C(=O)O)C(C)C)ccc34)s2)no1` [Compound 228, (S)-3-methyl-2-(7-(5-(5-methyl-1,2,4-oxadiazol-3-yl)thiazol-2-yl)dibenzo[b,d]furan-3-sulfonamido)butanoic acid], the IC50 was < 1.5 nM.

As to `CC(C)[C@H](NS(=O)(=O)c1ccc2c(c1)oc1ccc(-c3nc4ccc(Cl)cc4s3)cc12)C(=O)O` [Compound 203, (S)-2-(8-(6-chlorobenzo[d]thiazol-2-yl)dibenzo[b,d]furan-3-sulfonamido)-3-methylbutanoic acid], the IC50 was 4.1 nM.

`CC(C)[C@H](NS(=O)(=O)c1ccc2c(c1)oc1ccc(-c3ccc(-c4ccon4)s3)cc12)C(=O)O` [Compound 216, (S)-2-(8-(5-(isoxazol-3-yl)thiophen-2-yl)dibenzo[b,d]furan-3-sulfonamido)-3-methylbutanoic acid] showed an IC50 of 4.5 nM.

In the case of `CC(C)[C@H](NS(=O)(=O)c1ccc2c(c1)oc1cc(-c3nc4ccccc4s3)ccc12)C(=O)O` [Compound 226, (S)-2-(7-(benzo[d]thiazol-2-yl)dibenzo[b,d]furan-3-sulfonamido)-3-methylbutanoic acid], the IC50 is 1.7 nM.

In turn, `CC(C)CCn1cc(-c2ccc3sc4cc(S(=O)(=O)N[C@H](C(=O)O)C(C)C)ccc4c3c2)cn1` [Compound 43, (S)-2-(8-(1-isopentyl-1H-pyrazol-4-yl)dibenzo[b,d]thiophene-3-sulfonamido)-3-methylbutanoic acid] displayed an IC50 of 88 nM.

For the molecule `CC(C)[C@H](NS(=O)(=O)c1ccc2c(c1)oc1ccc(-c3noc(-c4ccc(F)cc4F)n3)cc12)C(=O)O` [Compound 269, (S)-2-(8-(5-(2,4-difluorophenyl)-1,2,4-oxadiazol-3-yl)dibenzo[b,d]furan-3-sulfonamido)-3-methylbutanoic acid], the IC50 was < 1.5 nM.

With `Cc1nc(C)c(-c2ccc3c(c2)oc2cc(S(=O)(=O)N[C@H](C(=O)O)C(C)C)ccc23)s1` [Compound 230, (S)-2-(7-(2,4-dimethylthiazol-5-yl)dibenzo[b,d]furan-3-sulfonamido)-3-methylbutanoic acid], the IC50 was < 1.5 nM.

Turning to `COCC#Cc1ccc2c(c1)sc1cc(S(=O)(=O)N[C@H](C(=O)O)C(C)C)ccc12` [Compound 65, (S)-2-(7-(3-methoxyprop-1-ynyl)dibenzo[b,d]thiophene-3-sulfonamido)-3-methylbutanoic acid], the IC50 came to 4.6 nM.

For `CC(C)[C@H](NS(=O)(=O)c1ccc2c(c1)oc1cc(-c3ccc(Cl)o3)ccc12)C(=O)O` [Compound 80, (S)-2-(7-(5-chlorofuran-2-yl)dibenzo[b,d]furan-3-sulfonamido)-3-methylbutanoic acid], the IC50 is < 1.5 nM.

Take `CC(C)(C)c1nc(-c2ccc3oc4cc(S(=O)(=O)N[C@H](C(=O)O)c5ccccc5)ccc4c3c2)no1` [Compound 254, (S)-2-(8-(5-tert-butyl-1,2,4-oxadiazol-3-yl)dibenzo[b,d]furan-3-sulfonamido)-2-phenylacetic acid]: the IC50 was found to be 21 nM.

`CC(C)[C@H](NS(=O)(=O)c1ccc2c(c1)sc1ccc(-c3cn[nH]c3)cc12)C(=O)O` [Compound 45, (S)-2-(8-(1H-pyrazol-4-yl)dibenzo[b,d]thiophene-3-sulfonamido)-3-methylbutanoic acid] registered an IC50 of 5.5 nM.

`CC(C)(C)c1nc(-c2ccc3c(c2)oc2ccc(S(=O)(=O)NCC(=O)O)cc23)no1` [Compound 274, 2-(7-(5-tert-butyl-1,2,4-oxadiazol-3-yl)dibenzo[b,d]furan-2-sulfonamido)acetic acid] displayed an IC50 of 60 nM.

Take `Cc1nc(-c2ccccc2)sc1-c1ccc2oc3cc(S(=O)(=O)N[C@H](C(=O)O)C(C)C)ccc3c2c1` [Compound 163, (S)-3-methyl-2-(8-(4-methyl-2-phenylthiazol-5-yl)dibenzo[b,d]furan-3-sulfonamido)butanoic acid]: the IC50 came out at 170 nM.

In turn, `Cc1onc(-c2ccccc2)c1-c1ccc2oc3cc(S(=O)(=O)N[C@H](C(=O)O)C(C)C)ccc3c2c1` [Compound 161, (S)-3-methyl-2-(8-(5-methyl-3-phenylisoxazol-4-yl)dibenzo[b,d]furan-3-sulfonamido)butanoic acid] returned a half-maximal inhibitory concentration (IC50) of 82 nM.

In turn, `CCNC(=N)c1ccc2oc3cc(S(=O)(=O)N[C@H](C(=O)O)C(C)C)ccc3c2c1` [Compound 128, (S)-2-(8-(N-ethylcarbamimidoyl)dibenzo[b,d]furan-3-sulfonamido)-3-methylbutanoic acid] registered a half-inhibitory concentration (IC50) of 73 nM.

With `CC(C)[C@H](NS(=O)(=O)c1ccc2c(c1)oc1ccc(-c3nc4ccc(OC(F)(F)F)cc4s3)cc12)C(=O)O` [Compound 221, (S)-3-methyl-2-(8-(6-(trifluoromethoxy)benzo[d]thiazol-2-yl)dibenzo[b,d]furan-3-sulfonamido)butanoic acid], 1.7 nM corresponded to half-maximal inhibition (IC50).

As to `CC(C)[C@H](NS(=O)(=O)c1ccc2c(c1)oc1ccc(C3=CCNCC3)cc12)C(=O)O` [Compound 70, (S)-3-methyl-2-(8-(1,2,3,6-tetrahydropyridin-4-yl)dibenzo[b,d]furan-3-sulfonamido)butanoic acid], the IC50 is 5.4 nM.

In turn, `COc1cccc2sc(-c3ccc4oc5cc(S(=O)(=O)N[C@H](C(=O)O)C(C)C)ccc5c4c3)nc12` [Compound 223, (S)-2-(8-(4-methoxybenzo[d]thiazol-2-yl)dibenzo[b,d]furan-3-sulfonamido)-3-methylbutanoic acid] yielded an IC50 of 13 nM.

On to `Cc1ccc2nc(-c3ccc4c(c3)oc3ccc(S(=O)(=O)N[C@@H](C(=O)O)C(C)C)cc34)sc2c1` [Compound 298, (R)-3-methyl-2-(7-(6-methylbenzo[d]thiazol-2-yl)dibenzo[b,d]furan-2-sulfonamido)butanoic acid], for which the IC50 worked out at 7.4 nM.

As for `CC(C)[C@H](NS(=O)(=O)c1ccc2c(c1)oc1ccc(-c3nc4ccc(F)cc4s3)cc12)C(=O)O` [Compound 209, (S)-2-(8-(6-fluorobenzo[d]thiazol-2-yl)dibenzo[b,d]furan-3-sulfonamido)-3-methylbutanoic acid], the IC50 is < 1.5 nM.

In the case of `COc1ccc(-c2ccc3oc4cc(S(=O)(=O)N[C@H](C(=O)O)C(C)C)ccc4c3c2)cn1` [Compound 10, (S)-2-(8-(6-methoxypyridin-3-yl)dibenzo[b,d]furan-3-sulfonamido)-3-methylbutanoic acid], the IC50 is < 1.5 nM.
